Data published in patent US7737166B2, “Antifungal bicyclic hetero ring compounds” (Daiichi Sankyo Company, Limited, priority 2005, dated 2010).
In brackets after ≈: the same amount, converted by molar mass.

Key:
Test in all cases: Antifungal activity (GI80), growth inhibition in YPD20 medium by absorbance at 600 nm
Format in all cases: cell-based
C. albicans ATCC MYA-573 = settings: minimum concentration for at least 80% cell growth inhibition, 37° C., absorbance 600 nm; for IC80: Candida albicans, read-out: GI80 (μg/ml) C. albicans ATCC MYA-573
Procedure: (§1) The antifungal activity of the compounds of the invention was determined according to the method mentioned below.
(§2) An YPD20 medium (1% yeast extract, 2% peptone, 20% glucose) was used,
(§3) (2) Preparation of Cell Liquid for Inoculation:
(§4) Cells incubated overnight with Sabouraud dextrose agar at 30° C. were suspended in 0.1% Tween 80-added saline, and then added to a concentrated medium (1.33% yeast extract, 2.67% peptone, 13.33% glucose) so that the final cell concentration could be 5×10^3 cells/ml, thereby preparing a cell liquid for inoculation.
(§5) (3) Production of Chemical Dilution Plate:
(§6) A metered sample was dissolved in dimethyl sulfoxide, and a 2-fold dilution series was prepared using dimethyl sulfoxide. A chemical dilution of 2 μl each was added to a flat-bottom 96-well plate with 40% glucose (48 μl) put in each well, thereby producing a chemical dilution plate.
(§7) (4) Inoculation and Cultivation of Cell Liquid:
(§8) The cell liquid (150 μl) prepared in (2) was added to the chemical dilution plate produced in (3), followed by aerobic static cultivation at 37° C.
(§9) (5) Determination of Antifungal Activity (GI80 Value):
(§10) After cultivation for […], the plate was stirred, and its absorbance (600 nm) was measured. Based on the absorbance as the index, the minimum chemical concentration for at least 80% cell growth inhibition relative to the cell growth in the chemical-free well was computed as a GI80 value.

C. albicans ATCC90028 = settings: 37° C., absorbance 600 nm; for IC80: Candida albicans, ATCC90028, minimum concentration for at least 80% cell growth inhibition, read-out: GI80 (μg/ml) C. albicans ATCC90028; for GI80 (μg/ml) C. albicans ATCC90028: minimum concentration for at least 80% cell growth inhibition
Procedure: as §1, §2, §3, §4, §5, §6, §7, §8, §9, §10

C. glabrata ATCC48435 = settings: 37° C., absorbance 600 nm; for IC80: Nakaseomyces glabratus, ATCC48435, minimum concentration for at least 80% cell growth inhibition, read-out: GI80 (μg/ml) C. glabrata ATCC48435; for GI80 (μg/ml) C. glabrata ATCC48435: minimum concentration for at least 80% cell growth inhibition
Procedure: as §1, §2, §3, §4, §5, §6, §7, §8, §9, §10

| SMILES | IC80 (C. albicans ATCC MYA-573) [µg/mL] | IC80 (C. albicans ATCC90028) [µg/mL] | IC80 (C. glabrata ATCC48435) [µg/mL] | GI80 (μg/ml) C. albicans ATCC MYA-573 (C. albicans ATCC MYA-573) [µg/mL] | GI80 (μg/ml) C. albicans ATCC90028 (C. albicans ATCC90028) [µg/mL] | GI80 (μg/ml) C. glabrata ATCC48435 (C. glabrata ATCC48435) [µg/mL] |
| --- | --- | --- | --- | --- | --- | --- |
| CCOC(=O)[C@@H]1C[C@H]1c1nc2c(C#N)c(C)c(-c3ccccc3)c(N3CC[C@H](N(C)C)C3)c2o1 (relative stereo) [Example 112, Ethyl (1R*,2R*)-2-{4-cyano-7-[(3S)-3-(dimethylamino)pyrrolidin-1-yl]-5-methyl-6-phenyl-1,3-benzoxazol-2-yl}cyclopropanecarboxylate] | 0.063 (≈ 0.137 µM) | 0.032 (≈ 0.0698 µM) | 0.032 (≈ 0.0698 µM) | – | – | – |
| Cc1c(-c2ccccc2)c(N2CC[C@H](N(C)C)C2)c2oc([C@@H]3C[C@H]3C(=O)N(C)C)nc2c1C#N (relative stereo) [Example 135, (1R*,2R*)-2-[4-Cyano-7-((S)-3-dimethylamino-pyrrolidinyl)-5-methyl-6-phenyl-benzoxazol-2-yl]-cyclopropanecarbonyldimethylamide] | – | – | – | 0.125 (≈ 0.273 µM) | 0.125 (≈ 0.273 µM) | 0.063 (≈ 0.138 µM) |
| Cc1c(-c2ccccc2)c(N2CC[C@H](N(C)C)C2)c2oc(C(C)(C)COCc3ccccc3)nc2c1C#N [Example 13, 2-[2-(Benzyloxy)-1,1-dimethylethyl]-7-[(3S)-3-(dimethylamino)pyrrolidin-1-yl]-5-methyl-6-phenyl-1,3-benzoxazole-4-carbonitrile] | 0.125 (≈ 0.246 µM) | 0.063 (≈ 0.124 µM) | 0.032 (≈ 0.0629 µM) | – | – | – |
| Cc1c(-c2ccccc2)c(N2CC[C@H](N(C)C)C2)c2oc(-c3ccco3)nc2c1C#N [Example 34, 7-[(3S)-3-(Dimethylamino)pyrrolidin-1-yl]-2-(2-furyl)-5-methyl-6-phenyl-1,3-benzoxazole-4-carbonitrile] | 0.25 (≈ 0.606 µM) | 0.25 (≈ 0.606 µM) | 0.032 (≈ 0.0776 µM) | – | – | – |
| Cc1c(-c2ccccc2)c(N2CC[C@H](N(C)C)C2)c2oc(C(=O)N(C)CCO)nc2c1C#N [Example 49, 4-Cyano-7-[(3S)-3-(dimethylamino)pyrrolidin-1-yl]N-(2-hydroxyethyl)-N,5-dimethyl-6-phenyl-1,3-benzoxazole-2-carboxamide] | 0.5 (≈ 1.12 µM) | 0.5 (≈ 1.12 µM) | 0.063 (≈ 0.141 µM) | – | – | – |
| Cc1c(-c2ccccc2)c(N2CC[C@H](N(C)C)C2)c2oc(C(=O)N(C)CC(=O)N(C)C)nc2c1C#N [Example 50, 4-Cyano-N-[2-(dimethylamino)-2-oxoethyl]-7-[(3S)-3-(dimethylamino)pyrrolidin-1-yl]-N,5-dimethyl-6-phenyl-1,3-benzoxazole-2-carboxamide] | 2 (≈ 4.09 µM) | 2 (≈ 4.09 µM) | 0.25 (≈ 0.512 µM) | – | – | – |
| CN[C@H]1CCN(c2c(-c3csc(C)n3)c(C)c(C#N)c3nc(C(=O)N(C)C)oc23)C1 [Example 52] | – | – | – | 1 (≈ 2.36 µM) | 1 (≈ 2.36 µM) | 0.25 (≈ 0.589 µM) |
| CC(=O)N(C)c1nc2c(C#N)c(C)c(-c3ccccc3)c(N3CC[C@H](N(C)C)C3)c2o1 [Example 54, N-{4-Cyano-7-[(3S)-3-(dimethylamino)pyrrolidin-1-yl]-5-methyl-6-phenyl-1,3-benzoxazol-2-yl}-N-methylacetamide] | 0.25 (≈ 0.599 µM) | 0.125 (≈ 0.299 µM) | 0.063 (≈ 0.151 µM) | – | – | – |
| Cc1c(-c2ccccc2)c(N2CC[C@H](N(C)C)C2)c2oc(N(C)C)nc2c1C#N [Example 56, 2-(Dimethylamino)-7-[(3S)-3-(dimethylamino)pyrrolidin-1-yl]-5-methyl-6-phenyl-1,3-benzoxazole-4-carbonitrile] | 0.5 (≈ 1.28 µM) | 0.125 (≈ 0.321 µM) | 0.063 (≈ 0.162 µM) | – | – | – |
| Cc1c(-c2ccccc2)c(N2CC[C@H](N(C)C)C2)c2oc(N(C)C(C)(C)C)nc2c1C#N [Example 62, 2-(N-tert-Butyl-N-methylamino)-7-[(3S)-3-(dimethylamino)pyrrolidin-1-yl]-5-methyl-6-phenyl-1,3-benzoxazole-4-carbonitrile] | 0.063 (≈ 0.146 µM) | 0.063 (≈ 0.146 µM) | 0.032 (≈ 0.0741 µM) | – | – | – |
| Cc1c(-c2ccccc2)c(N2CC[C@H](N(C)C)C2)c2oc(N3CC(C(=O)O)C3)nc2c1C#N [Example 67, 1-{4-Cyano-7-[(3S)-3-(dimethylamino)pyrrolidin-1-yl]-5-methyl-6-phenyl-1,3-benzoxazol-2-yl}-azetidine-3-carboxylic acid] | > 4 | > 4 | 0.25 (≈ 0.561 µM) | – | – | – |
| Cc1c(-c2ccccc2)c(N2CC[C@H](N(C)C)C2)c2oc(N(C)Cc3ncn[nH]3)nc2c1C#N [Example 72, 7-[(3S)-3-(Dimethylamino)pyrrolidin-1-yl]-5-methyl-2-[methyl(1H-1,2,4-triazol-5-ylmethyl)amino]-6-phenyl-1,3-benzoxazole-4-carbonitrile] | 0.5 (≈ 1.1 µM) | 0.5 (≈ 1.1 µM) | 0.125 (≈ 0.274 µM) | – | – | – |
| Cc1c(-c2cc(F)cc(F)c2)c(N2CC[C@H](N(C)C)C2)c2oc(C3CC3)nc2c1C#N [Example 82, 2-Cyclopropyl-6-(3,5-difluorophenyl)-7-[(3S)-3-(dimethylamino)pyrrolidin-1-yl]-5-methyl-1,3-benzoxazole-4-carbonitrile] | 0.125 (≈ 0.296 µM) | 0.063 (≈ 0.149 µM) | 0.032 (≈ 0.0757 µM) | – | – | – |
| Cc1c(-c2cccc(F)c2F)c(N2CC[C@H](N(C)C)C2)c2oc(C3CC3)nc2c1C#N [Example 83, 2-Cyclopropyl-6-(2,3-difluorophenyl)-7-[(3S)-3-(dimethylamino)pyrrolidin-1-yl]-5-methyl-1,3-benzoxazole-4-carbonitrile] | 0.5 (≈ 1.18 µM) | 0.5 (≈ 1.18 µM) | 0.125 (≈ 0.296 µM) | – | – | – |
| Cc1c(-c2ccccc2)c(N2CC[C@H](N(C)C)C2)c2oc(-c3nccs3)nc2c1C#N [Example 93, 7-[(3S)-3-(Dimethylamino)pyrrolidin-1-yl]-5-methyl-6-phenyl-2-(1,3-thiazol-2-yl)-1,3-benzoxazole-4-carbonitrile] | 0.125 (≈ 0.291 µM) | 0.125 (≈ 0.291 µM) | 0.032 (≈ 0.0745 µM) | – | – | – |
| Cc1c(-c2ccccc2)c(N2CC[C@H](N(C)C)C2)c2oc(C3CCC3)nc2c1C#N [Example 106, 2-Cyclobutyl-7-[(3S)-3-(dimethylamino)pyrrolidin-1-yl]-5-methyl-6-phenyl-1,3-benzoxazole-4-carbonitrile] | 0.125 (≈ 0.312 µM) | 0.063 (≈ 0.157 µM) | < 0.016 | – | – | – |
| Cc1c(-c2ccccc2)c(N2CC[C@H](N(C)C)C2)c2oc(Cc3ccco3)nc2c1C#N [Example 122, 7-[(3S)-3-(Dimethylamino)pyrrolidin-1-yl]-2-(2-furylmethyl)-5-methyl-6-phenyl-1,3-benzoxazole-4-carbonitrile] | 0.5 (≈ 1.17 µM) | 0.5 (≈ 1.17 µM) | 0.125 (≈ 0.293 µM) | – | – | – |
| CC(=O)NC1CN(c2nc3c(C#N)c(C)c(-c4ccccc4)c(N4CC[C@H](N(C)C)C4)c3o2)C1 [Example 126] | – | – | – | 0.5 (≈ 1.09 µM) | 0.5 (≈ 1.09 µM) | 0.125 (≈ 0.273 µM) |
| Cc1c(-c2ccccc2)c(N2CC[C@H](N(C)C)C2)c2oc(N3CCCC3=O)nc2c1C#N [Example 129] | – | – | – | 0.5 (≈ 1.16 µM) | 0.25 (≈ 0.582 µM) | 0.063 (≈ 0.147 µM) |
| CN[C@H]1CCN(c2c(-c3ccccc3)c(C)c(C#N)c3nc(C(=O)N(C)CCF)oc23)C1 [Example 134, 4-Cyano-N-(2-fluoroethyl)-N,5-dimethyl-7-[(3S)-3-(methylamino)pyrrolidin-1-yl]-6-phenyl-1,3-benzoxazole-2-carboxamide] | 0.5 (≈ 1.15 µM) | 0.5 (≈ 1.15 µM) | 0.125 (≈ 0.287 µM) | – | – | – |
| CN[C@H]1CCN(c2c(-c3ccccc3)c(CF)c(C#N)c3nc(C4CC4)oc23)C1 [Example 140, 2-Cyclopropyl-5-fluoromethyl-7-[(3S)-3-(methylamino)pyrrolidin-1-yl]-6-phenyl-1,3-benzoxazole-4-carbonitrile] | 0.5 (≈ 1.28 µM) | 0.5 (≈ 1.28 µM) | 0.125 (≈ 0.32 µM) | – | – | – |
| Cc1c(-c2ccsc2)c(N2CC[C@H](N(C)C)C2)c2oc(C3CC3)nc2c1C#N [Example 144-1, 2-Cyclopropyl-7-[(3S)-3-(dimethylamino)pyrrolidin-1-yl]-5-methyl-6-(thiophen-3-yl)-1,3-benzoxazole-4-carbonitrile] | 0.25 (≈ 0.637 µM) | 0.25 (≈ 0.637 µM) | 0.032 (≈ 0.0815 µM) | – | – | – |
| Cc1c(-c2cc(F)ccc2F)c(N2CC[C@H](N(C)C)C2)c2oc(C3CC3)nc2c1C#N [Example 144-5, 2-Cyclopropyl-6-(2,5-difluorophenyl)-7-[(3S)-3-(dimethylamino)pyrrolidin-1-yl]-5-methyl-1,3-benzoxazole-4-carbonitrile] | 0.25 (≈ 0.592 µM) | 0.125 (≈ 0.296 µM) | 0.032 (≈ 0.0757 µM) | – | – | – |
| COc1cccc(-c2c(C)c(C#N)c3nc(C4CC4)oc3c2N2CC[C@H](N(C)C)C2)c1 [Example 144-11, 2-Cyclopropyl-7-[(3S)-3-(dimethylamino)pyrrolidin-1-yl]-6-(3-methoxyphenyl)-5-methyl-1,3-benzoxazole-4-carbonitrile] | 0.5 (≈ 1.2 µM) | 0.25 (≈ 0.6 µM) | 0.125 (≈ 0.3 µM) | – | – | – |
